TGI and GI50 data for 19 molecules are collected here from PubChem BioAssay (NCI).

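Growth conditions: 96-well plates. Treatment: test compound, 48 hours, 5 concentrations. Analysis: linear interpolation between bracketing concentrations; unreached endpoints set to highest concentration. GI50 marks 50% less growth. TGI denotes the concentration required for complete inhibition of growth.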

Some test systems named below: EKVX NSCLC; RPMI-8226 leukemia; ACHN renal; SNB-19 CNS; SF-295 CNS; HCT-15 colon; NCI-H522 lung; SK-MEL-5 melanoma; SN12C renal; MALME-3M melanoma.
What all share (assay): growth of human tumour cells (NCI), 48 h

As to `COC(=O)NC1C(C)OC(OC2C/C=C(/C)C3C=CC4C(OC5CC(OC6CC(OC7CC(O)C(O)C(C)O7)C(OC7CC(O)C(OC)C(C)O7)C(C)O6)C(O)C(C)O5)C(C)CC(C)C4C3(C)/C(O)=C3\C(=O)OC4(CC(C)C(CO)=CC4/C=C\2C)C3=O)CC1(C)[N+](=O)[O-]` (stereo not given), the TGI is 42.8 µM in the assay on EKVX NSCLC; 7.66 µM in the assay with RPMI-8226 leukemia; 27.2 µM in the assay with ACHN renal; more than 100 µM with SNB-19 CNS; 53.2 µM in the assay on SF-295 CNS; 36.4 µM with HCT-15 colon. The TGI was 49.4 µM in the assay with NCI-H522 lung, more than 100 µM in the assay on SK-MEL-5 melanoma and more than 100 µM in the assay on SN12C renal.
For the molecule `CC1(C=O)CCC23COC4(CCC5C6(C)CCC(OC7OCC(OC8OC(CO)C(O)C(OC9OC(CO)C(O)C(O)C9O)C8OC8OCC(O)C(O)C8O)C(O)C7OC7OC(CO)C(O)C(O)C7O)C(C)(C)C6CCC5(C)C4(C)CC2O)C3C1` (stereo not given), the TGI with EKVX NSCLC amounted to 2.89 µM; in the assay on RPMI-8226 leukemia it was 4.45 µM; with ACHN renal, 2.57 µM; with SNB-19 CNS, 1.09 µM; in the assay on SF-295 CNS it was 2.23 µM; in the assay with HCT-15 colon, 2.86 µM. For the same molecule, the results for the TGI with NCI-H522 lung and in the assay with SK-MEL-5 melanoma were 3.41 µM and 2.96 µM, respectively.
Turning to `COc1cc([N+](=O)[O-])ccc1N1C(=O)C2c3[nH]c4ccccc4c3C3CCC(C(C)(C)C)CC3C2C1=O` (stereo not given), the TGI in the assay with MALME-3M melanoma, in the assay with EKVX NSCLC, with RPMI-8226 leukemia, with ACHN renal, with HCT-15 colon and in the assay with NCI-H522 lung was more than 100 µM each time. For the same molecule, the TGI with SK-MEL-5 melanoma and in the assay on SN12C renal was more than 100 µM each time.
With `CC1C(=O)C(C)C(c2ccco2)N(N=O)C1c1ccco1` (stereo not given), the TGI in the assay on MALME-3M melanoma, in the assay with EKVX NSCLC, with RPMI-8226 leukemia, in the assay with SNB-19 CNS, with SF-295 CNS and with HCT-15 colon was more than 100 µM throughout. Also, the TGI with NCI-H522 lung, in the assay on SK-MEL-5 melanoma and in the assay on SN12C renal was more than 100 µM each time.
On to `CCOC(=O)Nc1cc2c(c(N)n1)N=C(c1ccc3ccccc3c1)CN2`, for which the TGI is 19.3 µM in the assay with MALME-3M melanoma; more than 100 µM with EKVX NSCLC; more than 83.3 µM in the assay with ACHN renal; more than 100 µM in the assay with HCT-15 colon; 0.545 µM in the assay with NCI-H522 lung; 4.69 µM in the assay with SK-MEL-5 melanoma. The molecule further gave a TGI in the assay with SN12C renal of 5.29 µM.
Take `C[n+]1c2ccccc2c(CNC(CS)C(=O)O)c2ccccc21` (stereo not given): the TGI was 92.1 µM with MALME-3M melanoma; more than 100 µM in the assay on EKVX NSCLC; 50.5 µM in the assay on RPMI-8226 leukemia; more than 100 µM in the assay with ACHN renal; more than 100 µM in the assay with SNB-19 CNS; 63.4 µM in the assay on SF-295 CNS. Further, the TGI was 55.1 µM in the assay with HCT-15 colon, 34.8 µM in the assay on NCI-H522 lung and more than 100 µM with SN12C renal.
Turning to `CC1(O)COCCCCOc2c(CN)cccc2NC(=O)c2nc(cnc2N)-c2ccc(cc2)S(=O)(=O)C(C)(C)C1` (stereo not given), the GI50 in the assay with MALME-3M melanoma was 1770 nM; in the assay on EKVX NSCLC, 1680 nM; with RPMI-8226 leukemia, 1200 nM; in the assay with ACHN renal it was 42 nM; in the assay with SNB-19 CNS it was 1330 nM; in the assay on SF-295 CNS, 1430 nM. Further, the GI50 with HCT-15 colon was 227 nM; with SK-MEL-5 melanoma it was 1250 nM; in the assay with SN12C renal, 1270 nM. In addition, the TGI with MALME-3M melanoma is 3.43 µM; in the assay on EKVX NSCLC, 3.38 µM; in the assay with RPMI-8226 leukemia, 3.5 µM; with ACHN renal, 2.06 µM; in the assay on SNB-19 CNS, 2.74 µM; in the assay on SF-295 CNS, 2.84 µM. Besides, the TGI in the assay with HCT-15 colon is 1.82 µM; with SK-MEL-5 melanoma it was 2.56 µM; in the assay on SN12C renal, 2.66 µM.
With `C[N+](C)(C)CCN[N+]1(C)CCCc2ccccc21` (stereo not given), the TGI is 50.3 µM in the assay with MALME-3M melanoma; more than 100 µM in the assay with EKVX NSCLC; 92.9 µM with RPMI-8226 leukemia; more than 100 µM in the assay with ACHN renal; more than 100 µM in the assay with SNB-19 CNS; more than 100 µM in the assay with SF-295 CNS. For the same molecule, the TGI in the assay with HCT-15 colon was more than 100 µM; with NCI-H522 lung, 40.3 µM; in the assay on SK-MEL-5 melanoma, more than 100 µM; in the assay with SN12C renal, more than 100 µM.
Consider `Cc1c2cc[n+](C)cc2c(C)c2c1oc1ccccc12`, for which the TGI in the assay with MALME-3M melanoma is 3.99 µM; in the assay on EKVX NSCLC, more than 42.3 µM; with RPMI-8226 leukemia, 30.1 µM; with ACHN renal, more than 100 µM; with SNB-19 CNS, 4.27 µM; with SF-295 CNS it was 12.2 µM. In addition, the TGI in the assay on HCT-15 colon is more than 100 µM; in the assay with NCI-H522 lung it was 8.17 µM; in the assay on SK-MEL-5 melanoma, 14.1 µM; with SN12C renal it was 4.57 µM.
As to `Oc1ccc(-c2nc3cc(F)ccc3s2)cc1`, the TGI is 43.3 µM in the assay with MALME-3M melanoma; 38 µM in the assay on EKVX NSCLC; 60.5 µM in the assay with RPMI-8226 leukemia; 40.7 µM with ACHN renal; more than 100 µM with SNB-19 CNS; 48.6 µM with SF-295 CNS. The TGI stood at 68.2 µM in the assay with HCT-15 colon, 30.7 µM in the assay on NCI-H522 lung, 41.6 µM with SK-MEL-5 melanoma and 53.3 µM with SN12C renal.
As for `O=C(NC(Cc1ccc(I)cc1)C(=O)O)c1ccc(Cl)cc1` (stereo not given), the TGI with MALME-3M melanoma, with EKVX NSCLC, with RPMI-8226 leukemia, with SNB-19 CNS, in the assay with SF-295 CNS and in the assay on HCT-15 colon was more than 100 µM each time. Moreover, the TGI in the assay with NCI-H522 lung, in the assay with SK-MEL-5 melanoma and in the assay on SN12C renal was more than 100 µM throughout.
Regarding `CS(=O)(=O)OCCN(CCOS(C)(=O)=O)c1ccc(/C=N/Nc2ncnc3nc[nH]c23)cc1`, the TGI with MALME-3M melanoma was 55.2 µM; with EKVX NSCLC, 78.4 µM; in the assay with RPMI-8226 leukemia, 39 µM; in the assay with ACHN renal, 97.2 µM; in the assay on SNB-19 CNS, more than 100 µM; in the assay with SF-295 CNS, 46.6 µM. Also, the TGI is more than 100 µM in the assay on HCT-15 colon, 31.1 µM in the assay with NCI-H522 lung, 31.7 µM in the assay on SK-MEL-5 melanoma and more than 100 µM with SN12C renal.
Consider `N=C(N)SCc1cccc([N+](=O)[O-])c1`, for which the TGI was more than 76.6 µM in the assay with MALME-3M melanoma; more than 100 µM in the assay with EKVX NSCLC; 59.1 µM with RPMI-8226 leukemia; more than 100 µM with SF-295 CNS; more than 100 µM with HCT-15 colon; 18.2 µM in the assay with NCI-H522 lung. Moreover, the TGI in the assay on SK-MEL-5 melanoma is more than 100 µM; with SN12C renal, more than 96.1 µM.
`CCSc1nc(-c2cccs2)nc2ccc(I)cc12`: the TGI in the assay on EKVX NSCLC, with RPMI-8226 leukemia, in the assay on ACHN renal, in the assay on SNB-19 CNS, with SF-295 CNS and in the assay on HCT-15 colon was more than 100 µM in each case. The TGI in the assay with NCI-H522 lung, with SK-MEL-5 melanoma and with SN12C renal was more than 100 µM in each case.
Regarding `CCCCCCCN(CCCCCCC)CC(O)c1cc2ccccc2c2cc(Br)ccc12` (stereo not given), the TGI in the assay with MALME-3M melanoma is 40.7 µM; in the assay with EKVX NSCLC, more than 100 µM; in the assay on RPMI-8226 leukemia it was more than 100 µM; with ACHN renal it was more than 100 µM; with SNB-19 CNS, more than 100 µM; in the assay with HCT-15 colon it was more than 100 µM. The results for the TGI in the assay with NCI-H522 lung and in the assay with SN12C renal were more than 100 µM and 46.7 µM, respectively.
In the case of `O=C1OC2(OC2c2ccc(Cl)cc2)c2ccccc21` (stereo not given), the TGI in the assay with MALME-3M melanoma, in the assay on EKVX NSCLC, in the assay on RPMI-8226 leukemia, with ACHN renal, with SNB-19 CNS and with SF-295 CNS was more than 100 µM each time. Also, the TGI in the assay on HCT-15 colon, in the assay with NCI-H522 lung and with SN12C renal was more than 100 µM each time.
Take `CN(C)c1ccc(/C=c2/c3ccccc3n3c2cc(NC(=O)NCCC[N+](C)(C)C)[n+]3C)cc1`: the TGI with MALME-3M melanoma, with EKVX NSCLC, in the assay on RPMI-8226 leukemia, in the assay on ACHN renal, in the assay with SNB-19 CNS and with SF-295 CNS was more than 100 µM in each case. The TGI in the assay on HCT-15 colon, with NCI-H522 lung and in the assay on SK-MEL-5 melanoma was more than 100 µM in each case.
As to `CO/N=C(\C)c1cccc(Nc2nc3ccccc3c3occc23)c1`, the TGI with MALME-3M melanoma came out at 29.7 µM; in the assay on EKVX NSCLC it was 26.8 µM; with RPMI-8226 leukemia, 40.8 µM; in the assay on ACHN renal, 27.9 µM; in the assay on SNB-19 CNS, 31 µM; with SF-295 CNS it was 25.9 µM. The TGI in the assay on HCT-15 colon came to 24.5 µM; in the assay on SK-MEL-5 melanoma it was 28.7 µM; with SN12C renal, 26.9 µM.
Turning to `CCc1ccc2c(c1)C(=O)c1c-2n(CCCN)c(=O)c2cc([N+](=O)[O-])ccc12`, the GI50 in the assay on MALME-3M melanoma was 1420 nM; with EKVX NSCLC, 1670 nM; with ACHN renal, 1510 nM; in the assay on SNB-19 CNS, 1170 nM; with SF-295 CNS, 1070 nM; with NCI-H522 lung, 1230 nM. Also, the figures for the GI50 in the assay on SK-MEL-5 melanoma and with SN12C renal were 1600 nM and 1480 nM, respectively. Besides, the TGI in the assay on MALME-3M melanoma is 2.8 µM; in the assay with EKVX NSCLC it was 3.11 µM; in the assay with ACHN renal, 2.84 µM; in the assay on SNB-19 CNS, 2.42 µM; in the assay with SF-295 CNS, 2.47 µM; in the assay with NCI-H522 lung it was 2.7 µM. In addition, the figures for the TGI in the assay with SK-MEL-5 melanoma and with SN12C renal were 3.12 µM and 2.95 µM, respectively.
